Source: patent US5252566A, “Antithrombotic agents” (priority 1992, dated 1993)
Where a name gives a salt, the structure may show the parent alone. Read-outs that look alike come from different tables or passages of the source. Where a SMILES comes first, the peptide text is derived from it. [ ]: non-standard residue; d: D form. dTic = O=C(O)[C@H]1Cc2ccccc2CN1; Aze = O=C(O)[C@@H]1CCN1

Molecular target: T1, thrombin (Bos taurus, UniProt P00735)
T1 construct: purchased
Assay: biochemical
Protocol: The assay was carried out in 50 μl buffer (0.03M Tris, 0.15M NaCl, pH 7.4) with 25 μl of thrombin solution (0.21 mg/ml of thrombostat powder in 0.06M Tris, 0.3M NaCl, pH 7.4) and 150 μl of an aqueous solution of the chromogenic substrate at a concentration of 0.25 mg/ml. Solutions of test compound (25 μl) at various concentrations were added. Rates of hydrolysis of the substrate were measured by monitoring the reactions at 405 nm for the release of p-nitroaniline. Standard curves were constructed by plotting free thrombin concentration against hydrolysis rate. […] The amount of free inhibitor in each assay was calculated by subtracting the number of moles of bound thrombin from the number of moles of added inhibitor (test compound).
The Kass value is the hypothetical equilibrium constant for the reaction between thrombin and the test compound (I). [drawing 23]
Kass was calculated for a range of concentrations of test compounds and the mean value is reported in units of liter per mole.

[1] = Table 1, mean over a range of concentrations of test compound, pH 7.4, read-out: Kass × 10^6 (Thrombin Inhibition Levels) (converted)

Structure (SMILES) | Kd [1] [nM] | Kd [nM]
CC(=O)NC(C)(C(=O)N1CC[C@H]1C(=O)N[C@H](C=O)CCCNC(=N)N)c1ccccc1 (mixture of isomers) [Ac--Phg(α-CH3)--Azt--Arg--H, N--Acetyl--DL--Phg(α-CH3)--Azt--Arg--H] | 66.7 | 
CC(C)(C)OC(=O)NC(C)(C(=O)N1CC[C@H]1C(=O)N[C@H](C=O)CCCNC(=N)N)c1ccccc1 (mixture of isomers) [Boc--DL--Phg(α-CH3)--Azt--Arg--H, N--Boc--DL--Phg(α-CH3)--Azt--Arg--H] |  | 90.9
N=C(N)NCCC[C@@H](C=O)NC(=O)[C@@H]1CCN1C(=O)C1NCCc2ccccc21 (mixture of isomers) [DL-1-Tiq--Azt--Arg--H, DL-1,2,3,4-tetrahydroisoquinolin-1-oyl-L-azetidinyl-L-arginine aldehyde sulfate] | 37 | 
CC(=O)N[C@@](C)(C(=O)N1CC[C@H]1C(=O)N[C@H](C=O)CCCNC(=N)N)c1ccccc1 [Ac--D--Phg(α-CH3)--Azt--Arg--H, N--Acetyl--D--Phg(α-CH3)--Azt--Arg--H] | 14.3 | 
CC(C)(C)OC(=O)N[C@@](C)(C(=O)N1CC[C@H]1C(=O)N[C@H](C=O)CCCN=C(N)N)c1ccccc1 [Boc--D--Phg(α-CH3)--Azt--Arg--H, N--Boc--D--Phg(α-CH3)--Azt--Arg--H] |  | 16.4
N=C(N)NCCC[C@@H](C=O)NC(=O)[C@@H]1CCN1C(=O)[C@H]1Cc2ccccc2CN1 [D-3-Tiq--Azt--Arg--H, D-1,2,3,4-Tetrahydroisoquinolin-3-oyl-L-azetidin-2-oyl-L-arginine aldehyde sulfate] (H-[dTic]-[Aze]-Arg-aldehyde) | 28.6 | 
C[C@](NC(=O)C(F)(F)F)(C(=O)N1CC[C@H]1C(=O)N[C@H](C=O)CCCN=C(N)N)c1ccccc1 [TFA--D--Phg(α-Me)--Azt--Arg--H, N-[N-trifluoracetyl-D-(α-methyl)phenylglycyl)-L-azetidinyl-L-argininealdehyde hydrochloride] | 7.87 | 
